Assay results as given in patent publication US5583115A, “Dialkyltiacumicin compounds” (Abbott Laboratories, priority 1995, dated 1996).
Values after ≈ are worked out from the molar mass of the structure shown. Read-outs that look alike come from different tables or passages of the source.

Legend:
Bacteriodes fragilis = assay: MIC agar dilution, anaerobic bacteria; assay type: cell-based; details: 20 h
P. species = assay: MIC agar dilution, anaerobic bacteria; assay type: cell-based; details: 20 h; Culture # 1776; read-out: MIC
B. thetaiotaomicron = assay: MIC agar dilution, anaerobic bacteria; assay type: cell-based
B. bivius = assay: MIC agar dilution, anaerobic bacteria; assay type: cell-based; details: Prevotella bivia, 20 h
C. difficile = assay: MIC agar dilution, anaerobic bacteria; assay type: cell-based; details: Clostridioides difficile, 20 h
Clostridium perfringens = assay: microbe, parasite or virus in culture; assay type: cell-based; details: Clostridium perfringens, 20 h
Veillonella parvula = assay: MIC agar dilution, anaerobic bacteria; assay type: cell-based; details: Veillonella parvula, 20 h
B. loescheii = assay: MIC agar dilution, anaerobic bacteria; assay type: cell-based; details: Hoylesella loescheii, 20 h
C. ramosum = assay: MIC agar dilution, anaerobic bacteria; assay type: cell-based; details: Thomasclavelia ramosa, 20 h
Fusobacterium nucleatum = assay: MIC agar dilution, anaerobic bacteria; assay type: cell-based; details: Fusobacterium nucleatum, 20 h
[1] = system: Peptostreptococcus asaccharolyticus; assay: MIC agar dilution, anaerobic bacteria; assay type: cell-based; details: Peptoniphilus asaccharolyticus, 20 h
P. magnus = assay: MIC agar dilution, anaerobic bacteria; assay type: cell-based; details: Finegoldia magna, 20 h
Propionibacterium acnes = assay: MIC agar dilution, anaerobic bacteria; assay type: cell-based; details: Cutibacterium acnes, 20 h
B. disiens = assay: MIC agar dilution, anaerobic bacteria; assay type: cell-based; details: Prevotella disiens, 20 h
P. anaerobius = assay: MIC agar dilution, anaerobic bacteria; assay type: cell-based; details: Peptostreptococcus anaerobius, 20 h
Fusobacterium species = assay: MIC agar dilution, anaerobic bacteria; assay type: cell-based; details: Fusobacterium, 20 h
B. vulgatus = assay: MIC agar dilution, anaerobic bacteria; assay type: cell-based
Micrococcus luteus = assay: MIC agar dilution, aerobic and facultative bacteria; details: Micrococcus luteus, 20 h
Enterococcus faecium = assay: as above; details: Enterococcus faecium, 20 h
Enterobacter aerogenes = assay: as above; details: Klebsiella aerogenes, 20 h
E. coli = assay: as above; assay type: cell-based; details: Escherichia coli, 20 h, read-out: MIC
Pseudomonas aeruginosa = assay: as above
S. pyogenes = assay: as above; details: Streptococcus pyogenes, 20 h
Staphylococcus aureus = assay: as above; details: Staphylococcus aureus, 20 h
Providencia stuartii = assay: as above; details: Providencia stuartii, 20 h
P. cepacia = assay: as above; details: Burkholderia cepacia, 20 h
Klebsiella pneumoniae = assay: as above; details: Klebsiella pneumoniae, 20 h
S. epidermidis = assay: as above; details: Staphylococcus epidermidis, 20 h
[2] = system: Acinetobacter calcoaceticus; assay: as above; details: Acinetobacter calcoaceticus, 20 h
Clostridium difficile = assay: In vivo hamster model of pseudomembranous Clostridium difficile induced colitis; details: for % Mortality: days 8-14, expiring by day 20
Experimental: (Suppression of normal gastrointestinal bacteria by the ciprofloxacin permitted the drug-resistant C. difficile to predominate.) Five additional hamsters were segregated as a noninfected control group.
The infected animals were divided into three groups comprising (a) 10 untreated animals; (b) 15 vancomycin-treated animals (5 each at 20, 10 and 1 mg/kg/day orally on days 8-14); and (c) 10 animals treated with the compound of Example 2 (5 each at 10 and 1 mg/kg/day on days 8-14). The subject animals were monitored for (a) body weight (infected hamsters lose significant body mass), and (b) mortality (percent expiring by day 20).

Streptococcus agalactiae = assay: MIC agar dilution, aerobic and facultative bacteria; details: Streptococcus agalactiae, 20 h
Streptococcus bovis = assay: as above; details: Streptococcus equinus, 20 h
[3] = Bacteroides thetaiotaomicron, 20 h, Culture # 1764, read-out: MIC

What does the source list for `CCC[C@@H]1C[C@@H](C(=O)N[C@@H]([C@H]2O[C@H](SC)[C@H](O)[C@@H](O)[C@H]2O)[C@H](C)Cl)N(C)C1` [Clindamycin]?
MIC (Bacteriodes fragilis; Culture # 1756, Wilkins-Chalgren agar, 37° C., 48 hours, read-out: MIC): 1 mg/L (≈ 2.35 µM); MIC (Bacteriodes fragilis; Culture # 1757, read-out: MIC): 1 mg/L (≈ 2.35 µM); MIC (Bacteriodes fragilis; Culture # 1758, read-out: MIC): 0.5 mg/L (≈ 1.18 µM); MIC (Bacteriodes fragilis; Culture # 1999, read-out: MIC): 1 mg/L (≈ 2.35 µM); MIC (P. species): 0.06 mg/L (≈ 0.141 µM); MIC (B. thetaiotaomicron; [3]): 4 mg/L (≈ 9.41 µM); MIC (B. thetaiotaomicron; Culture # 1765): 4 mg/L (≈ 9.41 µM); MIC (B. thetaiotaomicron; Culture # 1766): 4 mg/L (≈ 9.41 µM); MIC (B. bivius; Culture # 2483, read-out: MIC): 0.015 mg/L (≈ 0.0353 µM); MIC (C. difficile; Culture # 1496, read-out: MIC): > 32 mg/L; MIC (C. difficile; Culture # 1497, read-out: MIC): > 32 mg/L; MIC (C. difficile; Culture # 1774, read-out: MIC): 0.5 mg/L (≈ 1.18 µM); MIC (C. difficile; Culture # 2025, read-out: MIC): 4 mg/L (≈ 9.41 µM); MIC (C. difficile; Culture # 2480, read-out: MIC): 4 mg/L (≈ 9.41 µM); MIC (C. difficile; Culture # 2528, read-out: MIC): 4 mg/L (≈ 9.41 µM); MIC (C. difficile; Culture # 2529, read-out: MIC): 4 mg/L (≈ 9.41 µM); MIC (Clostridium perfringens; Culture # 1771): 0.06 mg/L (≈ 0.141 µM); MIC (Clostridium perfringens; Culture # 1772): 0.5 mg/L (≈ 1.18 µM); MIC (Clostridium perfringens; Culture # 1773): 0.06 mg/L (≈ 0.141 µM); MIC (Veillonella parvula; Culture # 2479, read-out: MIC): 0.06 mg/L (≈ 0.141 µM); MIC (B. loescheii; Culture # 1767, read-out: MIC): 0.06 mg/L (≈ 0.141 µM); MIC (C. ramosum; Culture # 2482, read-out: MIC): 1 mg/L (≈ 2.35 µM); MIC (Fusobacterium nucleatum; Culture # 2478, read-out: MIC): 0.12 mg/L (≈ 0.282 µM); MIC ([1]; Culture # 1777, read-out: MIC): 0.03 mg/L (≈ 0.0706 µM); MIC (P. magnus; Culture # 1778, read-out: MIC): 1 mg/L (≈ 2.35 µM); MIC (Propionibacterium acnes; Culture # 1775, read-out: MIC): 0.06 mg/L (≈ 0.141 µM); MIC (B. disiens; Culture # 1763, read-out: MIC): 0.015 mg/L (≈ 0.0353 µM); MIC (P. anaerobius; Culture # 1780, read-out: MIC): 0.06 mg/L (≈ 0.141 µM); MIC (Fusobacterium species; Culture # 1770, read-out: MIC): 0.12 mg/L (≈ 0.282 µM); MIC (B. vulgatus; Culture # 2481): 0.03 mg/L (≈ 0.0706 µM); MIC (B. vulgatus; Phocaeicola vulgatus, 20 h, Culture # 1762, read-out: MIC): 0.03 mg/L (≈ 0.0706 µM)

Which results are given for `CN[C@H](CC(C)C)C(=O)N[C@H]1C(=O)N[C@@H](CC(N)=O)C(=O)N[C@H]2C(=O)N[C@H]3C(=O)N[C@H](C(=O)N[C@H](C(=O)O)c4cc(O)cc(O)c4-c4cc3ccc4O)[C@H](O)c3ccc(c(Cl)c3)Oc3cc2cc(c3O[C@@H]2O[C@H](CO)[C@@H](O)[C@H](O)[C@H]2O[C@H]2C[C@](C)(N)[C@H](O)[C@H](C)O2)Oc2ccc(cc2Cl)[C@H]1O` [Vancomycin]?
MIC (Bacteriodes fragilis; Culture # 1756, Wilkins-Chalgren agar, 37° C., 48 hours): 32 mg/L (≈ 22.1 µM); MIC (Bacteriodes fragilis; Culture # 1757): 32 mg/L (≈ 22.1 µM); MIC (Bacteriodes fragilis; Culture # 1758): 16 mg/L (≈ 11 µM); MIC (P. species): 1 mg/L (≈ 0.69 µM); MIC (B. thetaiotaomicron; [3]): > 64 mg/L; MIC (B. thetaiotaomicron; Culture # 1765): > 64 mg/L; MIC (B. thetaiotaomicron; Culture # 1766): > 64 mg/L; MIC (Micrococcus luteus; Culture # 2493): 0.78 mg/L (≈ 0.538 µM); MIC (Micrococcus luteus; Culture # 2517): 3.1 mg/L (≈ 2.14 µM); MIC (B. bivius): 32 mg/L (≈ 22.1 µM); MIC (C. difficile; Culture # 1496): 0.5 mg/L (≈ 0.345 µM); MIC (C. difficile; Culture # 1497): 0.5 mg/L (≈ 0.345 µM); MIC (C. difficile; Culture # 1774): 2 mg/L (≈ 1.38 µM); MIC (C. difficile; Culture # 2025): 0.5 mg/L (≈ 0.345 µM); MIC (C. difficile; Culture # 2480): > 64 mg/L; MIC (C. difficile; Culture # 2528): 1 mg/L (≈ 0.69 µM); MIC (C. difficile; Culture # 2529): 1 mg/L (≈ 0.69 µM); MIC (Clostridium perfringens; Culture # 1771): > 64 mg/L; MIC (Clostridium perfringens; Culture # 1772): 0.5 mg/L (≈ 0.345 µM); MIC (Clostridium perfringens; Culture # 1773): 1 mg/L (≈ 0.69 µM); MIC (Veillonella parvula): > 64 mg/L; MIC (B. loescheii): 32 mg/L (≈ 22.1 µM); MIC (Enterococcus faecium): 3.1 mg/L (≈ 2.14 µM); MIC (C. ramosum): 8 mg/L (≈ 5.52 µM); MIC (Enterobacter aerogenes): > 200 mg/L; MIC (E. coli; DC-2, Culture # 1674): > 200 mg/L; MIC (E. coli; H560, Culture # 1675): > 200 mg/L; MIC (E. coli; Juhl, Culture # 1673): > 200 mg/L; MIC (E. coli; KNK437, Culture # 1676): > 200 mg/L; MIC (E. coli; SS, Culture # 2489): 50 mg/L (≈ 34.5 µM); MIC (Fusobacterium nucleatum): > 64 mg/L; MIC (Pseudomonas aeruginosa; Culture # 1680): > 200 mg/L; MIC (Pseudomonas aeruginosa; Culture # 1681): > 200 mg/L; MIC (Pseudomonas aeruginosa; Culture # 1682): > 200 mg/L; MIC (Pseudomonas aeruginosa; Pseudomonas aeruginosa, 20 h): > 200 mg/L; MIC (Pseudomonas aeruginosa; cipro R, Culture # 1919): > 200 mg/L; MIC (Pseudomonas aeruginosa; cipro R, Culture # 1920): > 200 mg/L; MIC (S. pyogenes; Culture # 1671): 3.1 mg/L (≈ 2.14 µM); MIC (S. pyogenes; const., Culture # 1672): 0.78 mg/L (≈ 0.538 µM); MIC (S. pyogenes; inducible, Culture # 2548): 0.78 mg/L (≈ 0.538 µM); MIC [1]: 1 mg/L (≈ 0.69 µM); MIC (Staphylococcus aureus; Culture # 1662, brain heart infusion agar, 37° C.): 3.1 mg/L (≈ 2.14 µM); MIC (Staphylococcus aureus; Culture # 1664): 1.56 mg/L (≈ 1.08 µM); MIC (Staphylococcus aureus; Culture # 1690): 1.56 mg/L (≈ 1.08 µM); MIC (Staphylococcus aureus; Culture # 2124): 3.1 mg/L (≈ 2.14 µM); MIC (Staphylococcus aureus; Culture # 2130): 3.1 mg/L (≈ 2.14 µM); MIC (Staphylococcus aureus; Culture # 2498): 3.1 mg/L (≈ 2.14 µM); MIC (Staphylococcus aureus; cipro res., Culture # 3384): 1.56 mg/L (≈ 1.08 µM); MIC (Providencia stuartii): > 200 mg/L; MIC (P. cepacia): > 200 mg/L; MIC (P. magnus): 0.5 mg/L (≈ 0.345 µM); MIC (Propionibacterium acnes): 0.5 mg/L (≈ 0.345 µM); MIC (Klebsiella pneumoniae): > 200 mg/L; MIC (B. disiens): 32 mg/L (≈ 22.1 µM); MIC (P. anaerobius): 0.5 mg/L (≈ 0.345 µM); MIC (S. epidermidis): 3.1 mg/L (≈ 2.14 µM); MIC (Fusobacterium species): > 64 mg/L; MIC [2]: > 200 mg/L; MIC (B. vulgatus; Phocaeicola vulgatus, 20 h, Culture # 2481): 64 mg/L (≈ 44.2 µM); MIC (B. vulgatus; Phocaeicola vulgatus, 20 h, Culture # 1762): 32 mg/L (≈ 22.1 µM); rapidity of mortality (Clostridium difficile; 1 mg/kg versus 10 or 20 mg/kg): more rapid mortality than hamsters treated at 10 or 20 mg/kg; % Mortality (Clostridium difficile; 1 mg/kg/day): 100%; % Mortality (Clostridium difficile; 10 mg/kg/day): 100%; % Mortality (Clostridium difficile; 20 mg/kg/day, orally): 100%; MIC (Streptococcus agalactiae): 3.1 mg/L (≈ 2.14 µM); MIC (Streptococcus bovis): 0.78 mg/L (≈ 0.538 µM)
